According to ChEMBL document CHEMBL5360649, “Potential Broad-Spectrum Antimicrobial, Wound Healing, and Disinfectant Cationic Peptide Crafted from Snake Venom” (J Med Chem, 2023):
The source made the active and inactive calls. The calls are words filed in the database; no cut-off is given here.

Columns and labels:
[1] = Stability in human serum assessed as intact peptide remaining at 1 mM measured after 12 hrs by HPLC analysis; type: ADME, cell-free; details: read-out: Stability
Escherichia coli [2] = test: Antibacterial activity against Escherichia coli assessed as induction of cellular damage at MIC concentration incubated for 30 mins by SYTO9/PI staining based fluorescence microscopic analysis; type: functional, organism-based
Staphylococcus aureus [3] = test: Antibiofilm activity against methicillin-resistant Staphylococcus aureus assessed as biofilm eradication at 1 times of MIC incubated for 24 hrs by CV staining based analysis relative to control; type: functional
Klebsiella pneumoniae [4] = test: Bactericidal activity against Klebsiella pneumoniae ATCC BAA-1705 assessed as reduction in bacterial growth incubated for 24 hrs by Mueller Hinton Agar based plate analysis; type: functional
Pseudomonas aeruginosa [5] = test: Antibiofilm activity against Pseudomonas aeruginosa assessed as biofilm eradication at 1 times of MIC incubated for 24 hrs by CV staining based analysis relative to control; type: functional
Klebsiella pneumoniae [6] = test: Antibiofilm activity against Klebsiella pneumoniae assessed as biofilm disintegration at 0.5 to 1 times of MIC incubated for 24 hrs by Congo red dye based fluorescence analysis; type: functional, organism-based
Pseudomonas aeruginosa [7] = test: Antibacterial activity against patient-derived Pseudomonas aeruginosa assessed as inhibition of bacterial growth incubated for 24 hrs by CLSI protocol based microdilution method; type: functional
Escherichia coli [8] = test: Bactericidal activity against Escherichia coli ATCC CRM-11229 assessed as reduction in bacterial growth incubated for 24 hrs by Mueller Hinton Agar based plate analysis; type: functional
Pseudomonas aeruginosa [9] = test: Antibacterial activity against Pseudomonas aeruginosa assessed as inhibition of bacterial growth at 1.25 to 40 uM by microtiter plate reader analysis; type: functional, organism-based; details: dose 1.25-40 µM, time 0.5-8.5 hrs, TDE = time-dependent effect
Cell membrane [10] = test: Induction of inner membrane permeabilization in Escherichia coli assessed as increase in fluorescence at 0.5 to 1 times of MIC incubated for 60 mins by PI staining based fluorescence analysis; type: subcellular
Escherichia coli [11] = test: Antibacterial activity against Escherichia coli assessed as inhibition of bacterial growth at 1.25 to 40 uM by microtiter plate reader analysis; type: functional, organism-based; details: dose 1.25-40 µM, time 0.5-8.5 hrs, TDE = time-dependent effect
Cell membrane [12] = test: Induction of cytoplasmic membrane depolarization in Klebsiella pneumoniae assessed as increase in fluorescence intensity at 0.5 to 1 times of MIC incubated for 22 mins by DiSC3-5 dye based fluorescence method; type: subcellular
Staphylococcus aureus [13] = test: Antibiofilm activity against methicillin-resistant Staphylococcus aureus assessed as biofilm eradication at 0.5 times of MIC incubated for 24 hrs by CV staining based analysis relative to control; type: functional
Staphylococcus aureus [14] = test: Antibiofilm activity against preformed biofilm in methicillin-resistant Staphylococcus aureus assessed as decrease in cell viability at MIC incubated overnight by MTT assay relative to control; type: functional
Staphylococcus aureus [15] = test: Antibiofilm activity in methicillin-resistant Staphylococcus aureus assessed as biofilm disintegration at 0.5 to 1 times of MIC incubated for 24 hrs by Congo red dye based fluorescence analysis; type: functional, organism-based
Rattus norvegicus [16] = organism: Rattus norvegicus; test: Induction of wound healing in surgically-induced Albino Wistar rat wound model inoculated with methicillin-resistant Staphylococcus aureus assessed as reduction in inflammatory cell infiltration at 10 uM measured after 11 days by H&E staining based analysis; type: functional; details: time 11.0 day
Escherichia coli [17] = test: Induction of morphological changes in Escherichia coli assessed as membrane damage at MIC concentration incubated for 60 mins by SEM analysis; type: functional, organism-based
NMDF = test: Induction of cell migration in NMDF cells at 5 uM incubated for 24 hrs by wound healing scratch/mirgation assay; type: functional, cell-based; details: Mus musculus
Klebsiella pneumoniae [18] = test: Antibacterial activity against Klebsiella pneumoniae assessed as induction of cellular damage at MIC concentration incubated for 30 mins by SYTO9/PI staining based fluorescence microscopic analysis; type: functional, organism-based
[19] = Hemolytic activity in human RBC assessed as hemolysis at 3.125 to 12.5 uM incubated for 30 mins under shaking condition by multiplate reader analysis relative to control; type: toxicity, cell-based, Erythrocyte; details: human red blood cells (RBC), dose 3.125-12.5 µM, read-out: Activity
Klebsiella pneumoniae [20] = test: Antibiofilm activity against Klebsiella pneumoniae assessed as increase in dead cell proportion at MIC incubated overnight by SYTO9/PI staining based fluorescence analysis; type: functional, organism-based
[21] = Cytotoxicity against human A549 cells assessed as cell viability at 25 uM incubated for 24 hrs by MTT assay relative to control; type: toxicity, cell-based; details: read-out: Activity
Pseudomonas aeruginosa [22] = test: Induction of morphological changes in Pseudomonas aeruginosa at MIC concentration incubated for 6 hrs by AFM analysis; type: functional, organism-based
Rattus norvegicus [23] = organism: Rattus norvegicus; test: Induction of wound healing in surgically-induced Albino Wistar rat wound model inoculated with methicillin-resistant Staphylococcus aureus assessed as hair follicle formation at 10 uM measured after 11 days by H&E staining based analysis; type: functional; details: time 11.0 day
RAW264.7 = test: Antiinflammatory activity in LPS-induced mouse RAW264.7 cells assessed as increase in TGF-beta1 expression at 5 to 10 uM incubated for 24 hrs by radioimmunoprecipitation based dot-plot analysis; type: functional, cell-based; details: dose 5-10 µM
Escherichia coli [24] = test: Induction of resistance development in Escherichia coli assessed as change in MIC at 0.5 times of MIC incubated with compound for 12 hrs followed by replacement with fresh medium for 12 hrs and measured after 20 repeated cycles; type: functional, organism-based; details: time 240.0 hrs
Pseudomonas aeruginosa [25] = test: Induction of morphological changes in Pseudomonas aeruginosa assessed as membrane damage at MIC concentration incubated for 60 mins by SEM analysis; type: functional, organism-based
Cell membrane [26] = test: Induction of outer membrane permeabilization in Klebsiella pneumoniae at 0.5 to 1 times of MIC incubated for 5 to 20 mins by fluorescence based NPN uptake assay; type: subcellular; details: time 5-20 min
Pseudomonas aeruginosa [27] = test: Antibiofilm activity against Pseudomonas aeruginosa assessed as biofilm eradication at 0.5 times of MIC incubated for 24 hrs by CV staining based analysis relative to control; type: functional
Rattus norvegicus [28] = organism: Rattus norvegicus; test: Induction of wound healing in surgically-induced Albino Wistar rat wound model inoculated with methicillin-resistant Staphylococcus aureus assessed as sebaceous gland formation at 10 uM measured after 11 days by H&E staining based analysis; type: functional; details: time 11.0 day
Staphylococcus aureus [29] = test: Induction of morphological changes in methicillin-resistant Staphylococcus aureus assessed as abnormal cell shrinkage at MIC concentration incubated for 60 mins by SEM analysis; type: functional, organism-based
Pseudomonas aeruginosa [30] = test: Induction of morphological changes in Pseudomonas aeruginosa assessed as inhibition of cell division by measuring filamented cells at MIC concentration incubated for 60 mins by SEM analysis; type: functional, organism-based
Staphylococcus aureus [31] = test: Antibacterial activity against methicillin resistant Staphylococcus aureus assessed as inhibition of bacterial growth incubated for 0.5 to 8.5 hrs by microtiter plate reader analysis; type: functional, organism-based; details: dose 1.25-40 µM, time 0.5-8.5 hrs
Rattus norvegicus [32] = organism: Rattus norvegicus; test: Induction of wound healing in surgically-induced Albino Wistar rat wound model assessed as proper formation of hair follicles at 10 uM measured after 11 days by H&E staining based analysis; type: functional; details: time 11.0 day
Escherichia coli [33] = test: Antibacterial activity against Escherichia coli assessed as inhibition of bacterial growth at 1.25 to 40 uM incubated for 8 hrs by microtiter plate reader analysis; type: functional, organism-based; details: dose 1.25-40 µM
[34] = Cytotoxicity against human A549 cells assessed as cell viability at 12.5 uM incubated for 24 hrs by MTT assay relative to control; type: toxicity, cell-based; details: read-out: Activity
Escherichia coli [35] = test: Antibacterial activity against Escherichia coli ATCC CRM-11229 assessed as inhibition of bacterial growth incubated for 24 hrs by CLSI protocol based microdilution method; type: functional

Substance: H-FLPIIKWVKKFFWRWR-OH
- remaining at 12 h, 1000 µM [1]: 54.5%
- Activity (Escherichia coli [2]): Active
- Activity (Staphylococcus aureus [3]): <=87.6%
- MBC (Klebsiella pneumoniae [4]): 11 µM
- Activity (Pseudomonas aeruginosa [5]): <=72.73%
- Activity (Klebsiella pneumoniae [6]): Active
- MIC (Pseudomonas aeruginosa [7]): 4 µM
- MBC (Escherichia coli [8]): 4.5 µM
- Activity (Pseudomonas aeruginosa [9]): Tde
- Activity (Cell membrane [10]): Active
- Activity (Escherichia coli [11]): Tde
- Activity (Cell membrane [12]): Active
- Activity (Staphylococcus aureus [13]): ~70%
- Activity (Staphylococcus aureus [14]): 33.89%
- Activity (Staphylococcus aureus [15]): Active
- Activity (Rattus norvegicus [16]): Active
- Activity (Escherichia coli [17]): Active
- Activity (NMDF): inactive
- Activity (Klebsiella pneumoniae [18]): Active
- hemolysis at 0.5 h, up to 12.5 µM [19]: 3.22%
- Activity (Klebsiella pneumoniae [20]): Active
- viability at 24 h, 25 µM [21]: 55.4%
- Activity (Pseudomonas aeruginosa [22]): Active
- Activity (Rattus norvegicus [23]): Active
- Activity (RAW264.7): Active
- Activity (Escherichia coli [24]): inactive
- Activity (Pseudomonas aeruginosa [25]): Active
- Activity (Cell membrane [26]): Active
- Activity (Pseudomonas aeruginosa [27]): ~50%
- Activity (Rattus norvegicus [28]): Active
- Activity (Staphylococcus aureus [29]): Active
- Activity (Pseudomonas aeruginosa [30]): Active
- Activity (Staphylococcus aureus [31]): Dose-Dependent Effect
- Activity (Rattus norvegicus [32]): Active
- Activity (Escherichia coli [33]): Active
- viability at 24 h, 12.5 µM [34]: 74.3%
- MIC (Escherichia coli [35]): 3.5 µM
